Data from patent publication US10125126B2, “N-cycloalkyl-N-[(heterocyclylphenyl)methylene]-(thio)carboxamide derivatives” (BAYER CROPSCIENCE AG, priority 2012, dated 2018).

Assays:
Uromyces appendiculatus = assay: In vivo preventive test on Uromyces appendiculatus (bean rust); conditions: bean plants, 11 days after contamination
Method: In Vivo Preventive Test on Uromyces appendiculatus (Bean Rust) […] Bean plants (“Saxa” variety), sown in starter cups on a 50/50 peat soil pozzolana substrate and grown at 24° C., are treated at the 2 leaf stage (9 cm height) by spraying with the active ingredient prepared as described above. Plants, used as controls, are treated with the mixture of acetone/tween/DMSO/water not containing the active material. After 24 hours, the plants are contaminated by spraying the leaves with an aqueous suspension of Uromyces appendiculatus spores (150 000 spores per mL). The spores are collected from infected plants and are suspended in water containing 2.5 mL/L of Tween 80 at 10%. […] Grading (% of efficacy) is carried out 11 days after the contamination, in comparison with the control plants.

Septoria tritici = assay: In vivo preventive test on Septoria tritici (wheat); conditions: wheat plants, 24 days after contamination
Summary of the method: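 Scipion wheat grown at 22° C, sprayed at 1-leaf stage (10 cm); controls received acetone/tween/DMSO/water without active. Inoculated 24 h later with S. tritici spores (500 000/mL), held 72 h at 18° C, 100% RH, then 21 days at 90% RH. % efficacy vs controls scored 24 days post-inoculation.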

Sphaerotheca fuliginea = assay: In vivo preventive test on Sphaerotheca fuliginea (powdery mildew on cucurbits); conditions: gherkin plants, 12 days after contamination
Summary of the method: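 Gherkin plants ("Vert petit de Paris") grown at 24 °C were sprayed at cotyledon stage Z11; controls received acetone/tween/DMSO/water without active. Inoculation 24 h later by spraying cotyledons with 100 000 spores/mL. Efficacy (%) graded 12 days post-contamination versus controls.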

Pyrenophora teres = assay: In vivo preventive test on Pyrenophora teres (barley); conditions: barley plants, 14 days after contamination
Method: In Vivo Preventive Test on Pyrenophora teres (Barley) […] Barley plants (“Plaisant” variety), sown in starter cups on a 50/50 peat soil pozzolana substrate and grown at 22° C., are treated at the 1 leaf stage (10 cm height) by spraying with the active ingredient prepared as described above. Plants, used as controls, are treated with the mixture of acetone/tween/DMSO/water not containing the active material. After 24 hours, the plants are contaminated by spraying the leaves with an aqueous suspension of Pyrenophora teres spores (12 000 spores per mL). The spores are collected from a 12-day-old culture. […] Grading (% of efficacy) is carried out 14 days after the contamination, in comparison with the control plants.

[1] = log P by HPLC on a reversed-phase column (C 18), EEC Directive 79/831 Annex V.A8; assay type: physicochemical; conditions: HPLC on reversed-phase column (C 18), 40° C., 0.1% aqueous formic acid and acetonitrile, linear gradient 10% to 90% acetonitrile
Summary of the method: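 Compounds are eluted at 40° C using 0.1% aqueous formic acid and acetonitrile in a linear gradient from 10% to 90% acetonitrile. Unbranched alkan-2-ones bearing 3 to 16 carbons with known log P serve as calibrants. Each log P is interpolated linearly from retention times of the two bracketing alkanones.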

Puccinia recondita = assay: In vivo preventive test on Puccinia recondita (brown rust on wheat); conditions: wheat plants, 12 days after contamination
Method: In Vivo Preventive Test on Puccinia recondita (Brown Rust on Wheat) […] Wheat plants (“Scipion” variety), sown in starter cups on a 50/50 peat soil pozzolana substrate and grown at 22° C., are treated at the 1 leaf stage (10 cm height) by spraying with the active ingredient prepared as described above. Plants, used as controls, are treated with the mixture of acetone/tween/DMSO/water not containing the active material. After 24 hours, the plants are contaminated by spraying the leaves with an aqueous suspension of Puccinia recondita spores (100 000 spores per mL). The spores are collected from an infected plant and are suspended in water containing 2.5 mL/L of Tween 80 at 10%. […] Grading (% of efficacy) is carried out 12 days after the contamination, in comparison with the control plants.

Botrytis cinerea = assay: In vivo preventive test on Botrytis cinerea (grey mould); conditions: gherkin plants, 4 to 5 days after contamination
Method: In Vivo Preventive Test on Botrytis cinerea (Grey Mould) […] Gherkin plants (“Vert petit de Paris” variety), sown in starter cups on a 50/50 peat soil pozzolana substrate and grown at 24° C., are treated at the Z11 cotyledon stage by spraying with the active ingredient prepared as described above. Plants, used as controls, are treated with the mixture of acetone/tween/DMSO/water not containing the active material. After 24 hours, the plants are contaminated by spraying the cotyledons with an aqueous suspension of cryopreserved Botrytis cinerea spores (50 000 spores per mL). The spores are suspended in a nutrient solution composed of 10 g/L of PDB, 50 g/L of D-Fructose, 2 g/L of NH4NO3 and 1 g/L of KH2PO4. The contaminated gherkin plants are incubated at 17° C. and at 90% relative humidity. Grading (% of efficacy) is carried out 4 to 5 days after the contamination, in comparison with the control plants.

Alternaria brassicae = assay: In vivo preventive test on Alternaria brassicae (leaf spot on radish); conditions: 500 ppm of active ingredient; radish plants; 6 days after contamination
Method: In Vivo Preventive Test on Alternaria brassicae (Leaf Spot on Radish) […] Radish plants (“Pernod Clair” variety), sown in starter cups on a 50/50 peat soil pozzolana substrate and grown at 17° C., are treated at the cotyledon stage by spraying with the active ingredient prepared as described above. Plants, used as controls, are treated with the mixture of acetone/tween/DMSO/water not containing the active material. After 24 hours, the plants are contaminated by spraying the cotyledons with an aqueous suspension of Alternaria brassicae spores (50 000 spores per mL). The spores are collected from a 15-day-old culture. The contaminated radish plants are incubated at 20° C. and at 100% relative humidity. Grading (% of efficacy) is carried out 6 days after the contamination, in comparison with the control plants.

SMILES | logP [1] | Efficacy (Uromyces appendiculatus; 500 ppm of active ingredient) [%] | Efficacy (Septoria tritici; 500 ppm of active ingredient) [%] | Efficacy (Sphaerotheca fuliginea; 500 ppm of active ingredient) [%] | Efficacy (Pyrenophora teres; 500 ppm of active ingredient) [%] | Efficacy (Puccinia recondita; 500 ppm of active ingredient) [%] | Efficacy (Uromyces appendiculatus; 100 ppm of active ingredient) [%] | Efficacy (Botrytis cinerea; 500 ppm of active ingredient) [%] | Efficacy (Sphaerotheca fuliginea; 100 ppm of active ingredient) [%] | Efficacy (Pyrenophora teres; 100 ppm of active ingredient) [%] | Efficacy (Septoria tritici; 100 ppm of active ingredient) [%] | Efficacy (Alternaria brassicae) [%] | Efficacy (Botrytis cinerea; 100 ppm of active ingredient) [%] | Efficacy (Puccinia recondita; 100 ppm of active ingredient) [%]
Cn1nc(C(F)F)c(C(=O)N(Cc2cc(-c3ccc(Cl)s3)ccc2Cl)C2CC2)c1F [I.143] | 4.83 |  | 100 | 100 | 79 | 88 | 93 | 98 |  |  |  |  |  | 
Cn1nc(C(F)F)c(C(=O)N(Cc2cc(F)ccc2-c2ccoc2)C2CC2)c1F [I.27] | 3.33 | 100 | 80 | 100 | 93 | 100 |  |  |  |  |  |  |  | 
Cc1csc(-c2ccc(Cl)cc2CN(C(=O)c2c(C(F)F)nn(C)c2F)C2CC2)c1 [I.103] | 4.51 | 94 | 95 | 100 | 95 | 95 |  | 98 |  |  |  |  |  | 
Cn1nc(C(F)F)c(C(=O)N(Cc2cc(-c3ccsc3)ccc2Cl)C2CC2)c1F [I.95] | 3.96 |  |  |  |  |  |  |  | 98 | 88 |  |  |  | 
Cc1ccc(-c2coc3ccccc23)c(CN(C(=O)c2c(C(F)F)nn(C)c2F)C2CC2)c1 [I.134] | 4.32 |  |  |  |  |  | 77 |  | 90 | 71 | 79 |  |  | 
Cn1nc(C(F)F)c(C(=S)N(Cc2cc(Cl)ccc2-c2cccs2)C2CC2)c1F [I.74] | 4.69 | 100 |  | 100 |  | 94 |  | 100 |  |  |  | 83 |  | 
CC1CC1N(Cc1ccccc1-c1ccsc1)C(=O)c1c(C(F)F)nn(C)c1F (centres unmarked) [I.86] | 3.83 | 97 | 79 | 98 | 79 | 98 |  |  |  |  |  |  |  | 
Cn1nc(C(F)F)c(C(=O)N(Cc2cc(-c3ccco3)ccc2Cl)C2CC2)c1F [I.34] | 3.81 |  |  |  |  |  |  |  |  | 81 |  |  | 99 | 
Cn1cc(C(=O)N(Cc2ccccc2-c2cccs2)C2CC2)c(C(F)F)n1 [I.72] | 3.25 | 83 | 80 | 90 |  |  |  |  |  |  |  | 70 |  | 
Cn1cc(C(=O)N(Cc2cc(-c3ccsc3)ccc2Cl)C2CC2)c(C(F)F)n1 [I.93] | 3.59 |  |  |  |  |  |  |  |  | 88 | 86 |  |  | 
Cn1cc(C(=O)N(Cc2cc(-c3ccco3)ccc2Cl)C2CC2)c(C(F)F)n1 [I.36] | 3.44 |  |  |  |  |  |  |  |  | 71 |  |  |  | 
Cc1ccc(-c2cnn(C)c2)c(CN(C(=O)c2c(C(F)F)nn(C)c2Cl)C2CC2)c1 [I.57] | 2.71 |  |  |  |  |  |  |  |  | 79 |  |  |  | 
Cn1ccc(-c2ccc(F)cc2CN(C(=O)c2c(C(F)F)nn(C)c2F)C2CC2)c1 [I.47] | 3.37 |  |  | 94 | 71 |  |  |  |  |  |  |  |  | 
Cn1cc(C(=O)N(Cc2ccccc2-c2ccc(Cl)s2)C2CC2)c(C(F)F)n1 [I.140] | 3.87 | 73 | 96 |  |  |  |  |  |  |  |  | 90 |  | 
Cn1nc(C(F)F)c(C(=O)N(Cc2ccc(Cl)cc2-c2csc3ccccc23)C2CC2)c1F [I.159] | 4.92 | 84 | 88 | 100 |  |  |  | 100 |  | 75 |  |  |  | 
Cc1ccc(C2(C)CO2)c(CN(C(=O)c2c(C(F)F)nn(C)c2F)C2CC2)c1 (centres unmarked) [I.5] | 3.04 |  | 97 | 100 | 93 | 98 |  |  |  |  |  |  |  | 
Cn1nc(C(F)F)c(C(=O)N(Cc2cc(F)ccc2C2(C)CO2)C2CC2)c1F (centres unmarked) [I.7] | 2.86 |  |  |  |  |  | 100 |  | 94 | 97 | 100 |  |  | 100

Further lines, with some results ahead:

logP [1] | SMILES | Efficacy (Uromyces appendiculatus; 500 ppm of active ingredient) [%] | Efficacy (Septoria tritici; 500 ppm of active ingredient) [%] | Efficacy (Sphaerotheca fuliginea; 500 ppm of active ingredient) [%] | Efficacy (Pyrenophora teres; 500 ppm of active ingredient) [%] | Efficacy (Puccinia recondita; 500 ppm of active ingredient) [%] | Efficacy (Uromyces appendiculatus; 100 ppm of active ingredient) [%] | Efficacy (Botrytis cinerea; 500 ppm of active ingredient) [%] | Efficacy (Sphaerotheca fuliginea; 100 ppm of active ingredient) [%] | Efficacy (Pyrenophora teres; 100 ppm of active ingredient) [%] | Efficacy (Septoria tritici; 100 ppm of active ingredient) [%] | Efficacy (Alternaria brassicae) [%] | Efficacy (Botrytis cinerea; 100 ppm of active ingredient) [%] | Efficacy (Puccinia recondita; 100 ppm of active ingredient) [%]
3.55 | Cn1nc(C(F)F)c(C(=O)N(Cc2ccccc2-c2ccsc2)C2CC2)c1F [I.67] | 100 | 97 | 100 | 79 | 100 |  |  |  |  |  |  |  | 
3.99 | COc1ccsc1-c1ccc(Cl)cc1CN(C(=O)c1c(C(F)F)nn(C)c1F)C1CC1 [I.121] |  | 80 | 100 | 86 | 94 |  |  |  |  |  |  |  | 
2.52 | Cc1nn(C)c(C)c1-c1ccccc1CN(C(=O)c1c(C(F)F)nn(C)c1F)C1CC1 [I.114] |  | 100 | 94 | 79 | 72 |  |  |  |  |  |  |  | 
3.52 | COc1ccsc1-c1ccccc1CN(C(=O)c1c(C(F)F)nn(C)c1F)C1CC1 [I.120] | 100 | 80 | 100 | 79 | 100 |  |  |  |  |  |  |  | 
4.21 | Cn1nc(C(F)F)c(C(=S)N(Cc2ccccc2-c2ccsc2)C2CC2)c1F [I.73] | 100 |  | 100 | 71 | 100 |  | 100 |  |  |  |  |  | 
4.11 | Cn1nc(C(F)F)c(C(=O)N(Cc2cc(Cl)ccc2-c2cccs2)C2CC2)c1F [I.68] | 100 | 83 | 94 |  | 94 |  |  |  |  |  | 71 |  | 
4.06 | Cn1nc(C(F)F)c(C(=O)N(Cc2cc(-c3cccs3)ccc2Cl)C2CC2)c1F [I.83] |  |  |  |  |  | 80 |  | 98 | 86 |  |  |  | 75
3.92 | Cn1nc(C(F)F)c(C(=O)N(Cc2ccccc2-c2ccsc2Cl)C2CC2)c1F [I.138] | 100 | 100 | 100 | 79 | 94 |  | 100 |  |  |  |  |  | 
